From patent publication US20020102688A1, “Methods and products for the synthesis of oligosaccharide structures on glycoproteins, glycolipids, or as free molecules, and for the isolation of cloned genetic sequences that determine these structures” (The Regents of the University of Michigan, priority 1990, published 2002) come the findings set out here.

The target of one assay is T1, Fuc-TVI (Homo sapiens, UniProt P51993).
T1 construct: a 1.2 kb fragment containing the entire open reading frame was generated by the polymerase chain reaction; expressed in transfected cells; host or cells: COS-1 cells, transient transfection, 1% Triton X-100 extract
T1 sequence (P51993 1-359): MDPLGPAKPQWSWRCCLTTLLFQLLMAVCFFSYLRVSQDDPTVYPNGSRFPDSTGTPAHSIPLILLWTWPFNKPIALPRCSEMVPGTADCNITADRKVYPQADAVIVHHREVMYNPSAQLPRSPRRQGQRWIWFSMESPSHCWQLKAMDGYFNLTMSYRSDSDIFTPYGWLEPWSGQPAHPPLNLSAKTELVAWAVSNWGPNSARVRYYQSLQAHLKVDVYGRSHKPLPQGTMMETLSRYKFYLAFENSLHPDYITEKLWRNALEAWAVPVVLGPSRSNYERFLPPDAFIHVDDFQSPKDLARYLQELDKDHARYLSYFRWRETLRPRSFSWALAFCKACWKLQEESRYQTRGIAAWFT
As to the kind of experiment: Fucosyltransferase assay, extracts of COS-1 cells transfected with pCDNA1-Fuc-TVI. Format: biochemical. The conditions noted are these: for utilization as acceptor substrate by Fuc-TVI (in words): extracts of COS-1 cells transfected with pCDNA1-Fuc-TVI; for Relative Activity (%) with Fuc-TVI: relative product formation rate, N-acetyllactosamine = 100, acceptor 20 mM (2-fucosyllactose 5 mM), GDP-[14C]fucose 3 μM, transfected COS-1 cell extract. The protocol:
(§1) Cell extracts containing 1% Triton X-100 were prepared from transfected COS-1 cells, using procedures described previously (Kukowska-Latallo et al, Genes Devel., 4:1288-1303, 1990). Fucosyltransferase assays were performed in a total volume of 20 μl, and contained 50 mM sodium cacodylate, pH 6.2, 5 mM ATP, 10 mM fucose, 20 mM MnCl2, 3 μM GDP-^14C-fucose, and 5 μl (30 μg protein) of cell extract. Acceptor substrates were added to a final concentration of 20 mM. Reactions were incubated at 37° C. for 1 hour and terminated by addition of 20 μl ethanol, followed by addition of 600 μl of distilled water. An aliquot of each reaction (50 μl) was subjected to scintillation counting to determine total radioactivity in the reaction. Another aliquot (200 μl) was applied to a column containing 400 μl of Dowex 1X2-400, formate form (Rajan et al, J. Biol. Chem., 264:11158-11167, 1989). The flow through fraction, and […] of a subsequent water elution, were collected and pooled, and an aliquot was subjected to scintillation counting to quantitate incorporation of radioactive fucose into neutral product.
(§2) Table 2 presents the relative product formation rates obtained with low molecular weight acceptor substrates using cell extracts containing recombinant human α(1,3)fucosyltransferases expressed in transfected COS-1 cells, as described in the preceding sections. Fucosyltransferase assays were performed as described in detail in Lowe et al, J. Biol. Chem., (1991), 266:17467-17477; Weston et al, J. Biol. Chem. (1992), 267:4152-4160; and Kukowska-Latallo et al, Genes. Devel., (1990), 4:1288-1303. For each enzyme, the same extract was used, with saturating amounts of each acceptor oligosaccharide (20 mM, except for 2′-fucosylactose which was used at 5 mM), and GDP-^14C]fucose was present at 3 μM. Reaction times and enzyme amounts were adjusted to ensure a linear rate of product formation (less than 15% of the GDP-fucose substrate consumed). Products were separated by column chromatography and quantitated by liquid scintillation counting, and their structures were confirmed by high performance liquid chromatography, as described in Lowe et al, J. Biol. Chem., (1991), 266:17467-17477; Weston et al, J. Biol. Chem. (1992), 267:4152-4160; and Kukowska-Latallo et al, Genes. Devel., (1990), 4:1288-1303.

In another assay the target is T2, Fuc-TIV (Homo sapiens, UniProt P22083).
T2 sequence (P22083 1-405 isoform P22083-2): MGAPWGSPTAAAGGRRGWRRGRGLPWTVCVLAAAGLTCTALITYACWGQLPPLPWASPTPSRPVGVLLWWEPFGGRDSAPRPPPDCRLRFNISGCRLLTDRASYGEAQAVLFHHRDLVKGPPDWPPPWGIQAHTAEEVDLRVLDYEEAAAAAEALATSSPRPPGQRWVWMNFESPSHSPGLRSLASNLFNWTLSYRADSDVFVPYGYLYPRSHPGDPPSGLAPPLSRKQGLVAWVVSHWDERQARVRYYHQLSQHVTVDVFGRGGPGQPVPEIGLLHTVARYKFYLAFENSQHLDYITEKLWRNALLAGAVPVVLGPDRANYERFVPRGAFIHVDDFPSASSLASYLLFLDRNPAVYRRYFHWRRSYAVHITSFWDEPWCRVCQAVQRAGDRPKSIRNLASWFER
The assay is described as follows: Fucosyltransferase assay, extracts of COS-1 cells transfected with pCDNA1-Fuc-TIV. Format: biochemical. Also on record: expressed in transfected cells; host or cells: COS-1 cells, transient transfection, 1% Triton X-100 extract. As to conditions: for fucose transfer to acceptor: pCDNA1-Fuc-TIV COS-1 extracts with relatively large activity toward N-acetyllactosamine; for Relative Activity (%) with Fuc-TIV: relative product formation rate, N-acetyllactosamine = 100, acceptor 20 mM (2-fucosyllactose 5 mM), GDP-[14C]fucose 3 μM, transfected COS-1 cell extract; for fucosyltransferase activity with acceptor substrate: standard assay, extracts of pCDNA1-Fuc-TIV transfected COS-1 cells, acceptor 20 mM. The protocol:
as §1, with “cells.” for “cells, using procedures described previously (Kukowska-Latallo et al, Genes Devel., 4:1288-1303, 1990).”, “IX2-400,” for “1X2-400,”, “form.” for “form (Rajan et al, J. Biol. Chem., 264:11158-11167, 1989).”, “product. Descending paper chromatography was used to confirm the structure of the product formed with the acceptor N-acetyllactosamine. The neutral product in the Dowex column eluate was concentrated by lyophilization, resuspended in a small volume of water, and fractionated through Whatman No. 40 in phenol/isopropanol/formic acid/water (85:5:10:100, lower layer). After chromatography (40 hours), the air-dried chromatogram was cut into 1 cm strips and the strips eluted into 2 ml of water. Radioactivity in each eluate was determined by scintillation counting after mixing with 10 ml of scintillation cocktail.” for “product.”
as §2

As to `CC(=O)N[C@H]1C(O)O[C@H](CO)[C@@H](O[C@@H]2O[C@H](CO)[C@H](O)[C@H](O)[C@H]2O)[C@@H]1O` (stereo partly drawn) [N-acetyllactosamine], at Fuc-TVI, the “utilization as acceptor substrate by Fuc-TVI (in words)” value (“utilization as acceptor substrate” below) was “utilized” and the “Relative Activity (%) with Fuc-TVI” value is on record as 100%. At Fuc-TIV, the “fucose transfer to acceptor” value was determined as 474 pmol/mg/h, the “Relative Activity (%) with Fuc-TIV” value is reported as 100% and the “fucosyltransferase activity with acceptor substrate” value (shortened to “fucosyltransferase activity”) stood at 296 pmol/mg/h.
`CC(=O)N[C@@H]1[C@@H](O[C@@H]2O[C@H](CO)[C@H](O)[C@H](O)[C@H]2O)[C@H](O)[C@@H](CO)O[C@@H]1O` [lacto-N-biose I]: on Fuc-TVI, the “utilization as acceptor substrate” value was “not utilized” and the “Relative Activity (%) with Fuc-TVI” value is less than 1%. Moreover, at Fuc-TIV, the “Relative Activity (%) with Fuc-TIV” value is less than 1% and the “fucosyltransferase activity” value is on record as “trace amount”.
Consider `OC[C@H]1O[C@@H](O[C@H]2[C@H](O)[C@@H](O)C(O)O[C@@H]2CO)[C@H](O)[C@@H](O)[C@H]1O` (stereo partly drawn) [lactose], for which, on Fuc-TVI, the “utilization as acceptor substrate” value is listed as “did not function as acceptor substrates” and the “Relative Activity (%) with Fuc-TVI” value is listed as less than 1%. Besides, at Fuc-TIV, the “Relative Activity (%) with Fuc-TIV” value worked out at 3% and the “fucosyltransferase activity” value amounted to 10 pmol/mg/h.
With `CC(=O)NC1C(O)OC(CO)C(OC2OC(CO)C(O)C(OC3(C(=O)O)CC(O)C(NC(C)=O)C(C(O)C(O)CO)O3)C2O)C1O` (stereo not drawn) [α(2,3)sialyllactosamine, NeuAcα(2→3)Galβ(1→4)GlcNAc], on Fuc-TVI, the “utilization as acceptor substrate” value is on record as “efficiently utilized” and the “Relative Activity (%) with Fuc-TVI” value is listed as 110%. Besides, on Fuc-TIV, the “fucose transfer to acceptor” value is on record as “less than 1 pmol/mg-h” and the “Relative Activity (%) with Fuc-TIV” value is given as less than 1%.
“Fucα(1,2)Galβ(1,4)Glc [2-fucosyllactose]”: at Fuc-TVI, the “utilization as acceptor substrate” value is given as “did not function as acceptor substrates” and the “Relative Activity (%) with Fuc-TVI” value is given as less than 1%. Further, at Fuc-TIV, the “Relative Activity (%) with Fuc-TIV” value was 6% and the “fucosyltransferase activity” value was determined as 17 pmol/mg/h.
